What follows are compounds tested against PDE4B (Homo sapiens, UniProt Q07343) (assay: Scintillation Proximity (SPA) Assay of PDE4B enzyme inhibition). Details: read-out: % Inhibition PDE4B @ 1 μM.
Format: biochemical
Method: The inhibitions (in %) at 1 μM of the individual Example substances are included in the following Tables of Examples and were determined as follows:
The Scintillation Proximity (SPA) Assays (GE Healthcare, No. TRKQ7090) make use of the different affinities of cyclic 3′-5′-adenosine monophosphate (cAMP, low affinity) and linear 5′-adenosine monophosphate (AMP, high affinity) for yttrium silicate scintillator beads. The cAMP specific phosphodiesterase (PDE) PDE4B cleaves the 3′-phosphoester bond of the tritium-labelled [H3]-cAMP to form the [H3]-5′-AMP. Because of its higher affinity for the scintillator beads this [H3]-AMP accumulates on the beads and causes scintillation events (flashes of light) which are measured in a Wallac Microbeta Scintillation Counter.
The test starts with one hours incubation of [H3]-cAMP with the PDE4B enzyme in assay buffer at 30° C., once with the Example substance that is to be tested (in a concentration of 1 μM) and once without the Example substance that is to be tested. After this incubation the reaction is stopped by the addition of the beads. The beads are given an opportunity to settle over the next 45 minutes, then they are measured in the Scintillation Counter. If the substance is capable of inhibiting the enzymatic activity of the PDE4B, less [H3]-AMP is formed during the incubation phase and fewer scintillation events can be measured.

Chain of PDE4B (Q07343 whole entry, species assumed): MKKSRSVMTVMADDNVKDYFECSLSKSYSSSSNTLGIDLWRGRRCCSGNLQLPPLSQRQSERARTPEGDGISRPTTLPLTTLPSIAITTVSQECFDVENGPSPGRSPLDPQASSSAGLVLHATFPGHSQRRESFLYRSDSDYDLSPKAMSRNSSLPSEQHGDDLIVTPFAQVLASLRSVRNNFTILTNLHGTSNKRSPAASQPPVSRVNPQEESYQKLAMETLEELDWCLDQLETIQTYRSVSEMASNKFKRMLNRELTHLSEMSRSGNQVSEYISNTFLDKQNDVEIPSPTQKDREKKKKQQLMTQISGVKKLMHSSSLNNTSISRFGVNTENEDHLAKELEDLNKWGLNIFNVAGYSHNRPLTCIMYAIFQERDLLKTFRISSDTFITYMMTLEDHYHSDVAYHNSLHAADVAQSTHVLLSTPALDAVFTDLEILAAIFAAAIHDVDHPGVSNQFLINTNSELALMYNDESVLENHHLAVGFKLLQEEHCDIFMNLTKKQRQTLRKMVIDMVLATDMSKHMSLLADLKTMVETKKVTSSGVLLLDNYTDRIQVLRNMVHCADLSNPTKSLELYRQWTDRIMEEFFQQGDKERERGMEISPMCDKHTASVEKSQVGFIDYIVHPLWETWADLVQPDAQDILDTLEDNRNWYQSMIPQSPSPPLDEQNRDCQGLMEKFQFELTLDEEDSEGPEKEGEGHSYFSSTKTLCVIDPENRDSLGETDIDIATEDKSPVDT

Row | SMILES | inhibition at 1 µM [%]
1 | CN1C[C@@H](Nc2nc(N3CCN(c4ccc(Cl)c(Cl)c4)CC3)nc3c2[S+]([O-])CC3)CCC1=O (stereo partly drawn) [Example 59, (S)-5-{2-[4-(3,4-DICHLOROPHENYL)-PIPERAZIN-1-YL]-5-OXO-6,7-DIHYDRO-5H-5λ^4-THIENO[3,2-D]PYRIMIDIN-4-YLAMINO}-1-METHYLPIPERIDIN-2-ONE] | 96
2 | CN1C[C@@H](Nc2nc(N3CCN(c4ccc(Cl)c(F)c4)CC3)nc3c2[S+]([O-])CC3)CCC1=O (stereo partly drawn) [Example 64, (S)-5-{2-[4-(4-CHLORO-3-FLUOROPHENYL)-PIPERAZIN-1-YL]-5-OXO-6,7-DIHYDRO-5H-5λ^4-THIENO[3,2-D]PYRIMIDIN-4-YLAMINO}-1-METHYLPIPERIDIN-2-ONE] | 94
3 | Cc1cc(Cl)ccc1N1CCN(c2nc3c(c(N[C@H]4CCC(=O)N(C)C4)n2)[S+]([O-])CC3)CC1 (stereo partly drawn) [Example 90, (S)-5-{2-[4-(4-CHLORO-2-METHYLPHENYL)-PIPERAZIN-1-YL]-5-OXO-6,7-DIHYDRO-5H-5λ^4-THIENO[3,2-D]PYRIMIDIN-4-YLAMINO}-1-METHYLPIPERIDIN-2-ONE] | 97
4 | Cc1cc(C)cc(N2CCN(c3nc4c(c(Nc5cccc(F)c5)n3)[S+]([O-])CC4)CC2)c1 (centres unmarked) [Example 100, {2-[4-(3,5-DIMETHYLPHENYL)-PIPERAZIN-1-YL]-5-OXO-6,7-DIHYDRO-5H-5λ^4-THIENO[3,2-D]PYRIMIDIN-4-YL}-(3-FLUOROPHENYL)-AMINE] | 97

Same assay, conditions: test substance 1 μM; one hour incubation of [H3]-cAMP with PDE4B enzyme at 30° C.; read-out: % Inhibition PDE4B @ 1 μM

Row | SMILES | inhibition at 1 µM [%]
5 | [O-][S+]1CCc2nc(N3CCN(c4cccc(F)c4)CC3)nc(NC3CCOCC3)c21 (centres unmarked) [Example 42, {2-[4-(3-FLUOROPHENYL)-PIPERAZIN-1-YL]-5-OXO-6,7-DIHYDRO-5H-5λ^4-THIENO[3,2-D]PYRIMIDIN-4-YL}-(TETRAHYDROPYRAN-4-YL)-AMINE] | 96
6 | [O-][S+]1CCc2nc(N3CCN(c4cccc(F)c4)CC3)nc(Nc3cccc(F)c3)c21 (centres unmarked) [Example 47, (3-FLUOROPHENYL)-{2-[4-(3-FLUOROPHENYL)-PIPERAZIN-1-YL]-5-OXO-6,7-DIHYDRO-5H-5λ^4-THIENO[3,2-D]PYRIMIDIN-4-YL}-AMINE] | 96
7 | Cc1cccc(N2CCN(c3nc4c(c(Nc5cccc(F)c5)n3)[S+]([O-])CC4)CC2)c1 (centres unmarked) [Example 50, (3-FLUOROPHENYL)-[5-OXO-2-(4-m-TOLYLPIPERAZIN-1-YL)-6,7-DIHYDRO-5H-5λ^4-THIENO[3,2-D]PYRIMIDIN-4-YL]-AMINE] | 96
8 | CC(C)C(CO)Nc1nc(N2CCN(c3ccc(Cl)c(C#N)c3)CC2)nc2c1[S+]([O-])CC2 [Example 53, 2-chloro-5-{4-[4-((R)-1-hydroxymethyl-2-methyl-propylamino)-5-oxo-6,7-dihydro-5H-5λ^4-thieno[3,2-d]pyrimidin-2-yl]-piperazin-1-yl}-benzonitrile] | 89
9 | Cc1cc(N2CCN(c3nc4c(c(NC(CO)C(C)C)n3)[S+]([O-])CC4)CC2)ccc1Cl [Example 54, (R)-2-{2-[4-(4-chloro-3-methylphenyl)-piperazin-1-yl]-5-oxo-6,7-dihydro-5H-5λ^4-thieno[3,2-d]pyrimidin-4-ylamino}-3-methylbutan-1-ol] | 63
10 | CCC[C@H](CO)Nc1nc(N2CCN(c3ccc(Cl)c(C(F)(F)F)c3)CC2)nc2c1[S+]([O-])CC2 (stereo partly drawn) [Example 56, (R)-2-{2-[4-(4-chloro-3-trifluoromethylphenyl)-piperazin-1-yl]-5-oxo-6,7-dihydro-5H-5λ^4-thieno[3,2-d]pyrimidin-4-ylamino}-pentan-1-ol] | 94
11 | [O-][S+]1CCc2nc(N3CCN(c4ccc(Cl)c(Cl)c4)CC3)nc(NC3(CO)CC3)c21 (centres unmarked) [Example 57, (1-{2-[4-(3,4-DICHLOROPHENYL)-PIPERAZIN-1-YL]-5-OXO-6,7-DIHYDRO-5H-5λ^4-THIENO[3,2-D]PYRIMIDIN-4-YLAMINO}-CYCLOPROPYL)-METHANOL] | 96
12 | [O-][S+]1CCc2nc(N3CCN(c4ccc(Cl)c(Cl)c4)CC3)nc(NC3CCOCC3)c21 (centres unmarked) [Example 58, {2-[4-(3,4-DICHLOROPHENYL)-PIPERAZIN-1-YL]-5-OXO-6,7-DIHYDRO-5H-5λ^4-THIENO[3,2-D]PYRIMIDIN-4-YL}-(TETRAHYDROPYRAN-4-YL)-AMINE] | 96
13 | CC(C)C(CO)Nc1nc(N2CCN(c3ccc(Cl)c(F)c3)CC2)nc2c1[S+]([O-])CC2 [Example 60, (R)-2-{2-[4-(4-chloro-3-fluorophenyl)-piperazin-1-yl]-5-oxo-6,7-dihydro-5H-5λ^4-thieno[3,2-d]pyrimidin-4-ylamino}-3-methylbutan-1-ol] | 94
14 | [O-][S+]1CCc2nc(N3CCN(c4ccc(Cl)c(F)c4)CC3)nc(NC3(CO)CC3)c21 (centres unmarked) [Example 61, (1-{2-[4-(4-CHLORO-3-FLUOROPHENYL)-PIPERAZIN-1-YL]-5-OXO-6,7-DIHYDRO-5H-5λ^4-THIENO[3,2-D]PYRIMIDIN-4-YLAMINO}-CYCLOPROPYL)-METHANOL] | 95
15 | [O-][S+]1CCc2nc(N3CCN(c4ccc(Cl)c(F)c4)CC3)nc(NC3CCOCC3)c21 (centres unmarked) [Example 62, {2-[4-(4-CHLORO-3-FLUOROPHENYL)-PIPERAZIN-1-YL]-5-OXO-6,7-DIHYDRO-5H-5λ^4-THIENO[3,2-D]PYRIMIDIN-4-YL}-(TETRAHYDROPYRAN-4-YL)-AMINE] | 95
16 | [O-][S+]1CCc2nc(N3CCN(c4ccc(Cl)c(F)c4)CC3)nc(Nc3cccc(F)c3)c21 (centres unmarked) [Example 63, {2-[4-(4-CHLORO-3-FLUOROPHENYL)-PIPERAZIN-1-YL]-5-OXO-6,7-DIHYDRO-5H-5λ^4-THIENO[3,2-D]PYRIMIDIN-4-YL}-(3-FLUOROPHENYL)-AMINE] | 95
17 | Cc1cc(Cl)ccc1N1CCN(c2nc3c(c(Nc4cccc(F)c4)n2)[S+]([O-])CC3)CC1 (centres unmarked) [Example 67, {2-[4-(4-CHLORO-2-METHYLPHENYL)-PIPERAZIN-1-YL]-5-OXO-6,7-DIHYDRO-5H-5λ^4-THIENO[3,2-D]PYRIMIDIN-4-YL}-(3-FLUOROPHENYL)-AMINE] | 94
18 | CC(C)[C@H](CO)Nc1nc(N2CCN(c3cc(Cl)cc(Cl)c3)CC2)nc2c1[S+]([O-])CC2 (stereo partly drawn) [Example 68, (R)-2-{2-[4-(3,5-DICHLOROPHENYL)-PIPERAZIN-1-YL]-5-OXO-6,7-DIHYDRO-5H-5λ^4-THIENO[3,2-D]PYRIMIDIN-4-YLAMINO}-3-METHYLBUTAN-1-OL] | 96
19 | Cc1cc(Cl)ccc1N1CCN(c2nc3c(c(N[C@@H](CO)C(C)C)n2)[S+]([O-])CC3)CC1 (stereo partly drawn) [Example 75, (R)-2-{2-[4-(4-CHLORO-2-METHYLPHENYL)-PIPERAZIN-1-YL]-5-OXO-6,7-DIHYDRO-5H-5λ^4-THIENO[3,2-D]PYRIMIDIN-4-YLAMINO}-3-METHYLBUTAN-1-OL] | 90
20 | Cc1cc(Cl)ccc1N1CCN(c2nc3c(c(NC4(CO)CC4)n2)[S+]([O-])CC3)CC1 (centres unmarked) [Example 81, (1-{2-[4-(4-CHLORO-2-METHYLPHENYL)-PIPERAZIN-1-YL]-5-OXO-6,7-DIHYDRO-5H-5λ^4-THIENO[3,2-D]PYRIMIDIN-4-YLAMINO}-CYCLOPROPYL)-METHANOL] | 95
21 | Cc1cc(Cl)ccc1N1CCN(c2nc3c(c(NC4CCOCC4)n2)[S+]([O-])CC3)CC1 (centres unmarked) [Example 98, {2-[4-(4-CHLORO-2-METHYLPHENYL)-PIPERAZIN-1-YL]-5-OXO-6,7-DIHYDRO-5H-5λ^4-THIENO[3,2-D]PYRIMIDIN-4-YL}-(TETRAHYDROPYRAN-4-YL)-AMINE] | 96
22 | [O-][S+]1CCc2nc(N3CCN(c4cc(Cl)cc(Cl)c4)CC3)nc(Nc3cccc(F)c3)c21 (centres unmarked) [Example 99, {2-[4-(3,5-DICHLOROPHENYL)-PIPERAZIN-1-YL]-5-OXO-6,7-DIHYDRO-5H-5λ^4-THIENO[3,2-D]PYRIMIDIN-4-YL}-(3-FLUOROPHENYL)-AMINE] | 96
23 | [O-][S+]1CCc2nc(N3CCN(c4ccc(Cl)cc4F)CC3)nc(NC3(CO)CC3)c21 (centres unmarked) [Example 105, (1-{2-[4-(4-CHLORO-2-FLUOROPHENYL)-PIPERAZIN-1-YL]-5-OXO-6,7-DIHYDRO-5H-5λ^4-THIENO[3,2-D]PYRIMIDIN-4-YLAMINO}-CYCLOPROPYL)-METHANOL] | 94
24 | [O-][S+]1CCc2nc(N3CCN(c4ccc(Cl)cc4F)CC3)nc(NC3CCOCC3)c21 (centres unmarked) [Example 107, {2-[4-(4-CHLORO-2-FLUOROPHENYL)-PIPERAZIN-1-YL]-5-OXO-6,7-DIHYDRO-5H-5λ^4-THIENO[3,2-D]PYRIMIDIN-4-YL}-(TETRAHYDROPYRAN-4-YL)-AMINE] | 94
25 | [O-][S+]1CCc2nc(N3CCN(c4ccc(Cl)cc4F)CC3)nc(Nc3cccc(F)c3)c21 (centres unmarked) [Example 109, {2-[4-(4-CHLORO-2-FLUOROPHENYL)-PIPERAZIN-1-YL]-5-OXO-6,7-DIHYDRO-5H-5λ^4-THIENO[3,2-D]PYRIMIDIN-4-YL}-(3-FLUOROPHENYL)-AMINE] | 92
26 | CC(C)[C@H](CO)Nc1nc(N2CCN(c3ccc(Cl)cc3F)CC2)nc2c1[S+]([O-])CC2 (stereo partly drawn) [Example 111, (R)-2-{2-[4-(4-CHLORO-2-FLUOROPHENYL)-PIPERAZIN-1-YL]-5-OXO-6,7-DIHYDRO-5H-5λ^4-THIENO[3,2-D]PYRIMIDIN-4-YLAMINO}-3-METHYLBUTAN-1-OL] | 92

From patent US20110028441A1, “NOVEL PHENYL-SUBSTITUTED PIPERAZINO-DIHYDROTHIENOPYRIMIDINES” (BOEHRINGER INGELHEIM INTERNATIONAL GMBH, priority 2007, published 2011)
